These results are taken from PubChem BioAssay AID179 (DTP/NCI, 2004).

The subject of the test is CEM cells HIV-1 protection, formazan growth assay. Description: NCI AIDS Antiviral Assay. The settings on record: for IC50: measured here: growth of uninfected CEM cells. The method, boiled down: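 Human CEM cells, uninfected and HIV-1-infected, received five drug concentrations, and growth was read by soluble formazan assay. Compounds giving at least 50% protection were retested; reproducible 100% protection defined confirmed active.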

Several values for one entry are separate records, joined by “and”; a condition that tells them apart may be missing. Equal entries are not always repeated. Activity calls are given as the source filed them.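 Rule for the calls: active = compounds giving half or more protection of infected cells from virus-caused growth loss, again on retest; inactive = the rest.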 Where a SMILES comes first, the peptide text is derived from it. Where only a bound is given, the exact number is not on record here.

Broadly, the EC50 is the concentration giving half of the maximal effect. What is called IC50 is the concentration at which inhibition is half-maximal. A high value points to weaker potency in that assay. As to `NNc1cnn(-c2ccccc2)c(=O)c1Cl`, the EC50 was > 57.5 µM and the concentration for half-maximal inhibition (IC50) worked out at 4.57 µM. As for `CC(=C/c1ccccc1)/C=C1/NC(=S)N(/C=C2\C(=O)Oc3ccccc3C2=O)C1=O`, the EC50 is > 200 µM and the IC50 was > 200 µM. With `COc1ccc(N=Nc2c(C)c(C#N)c(=S)n(C3OC(CO)C(O)C(O)C3O)c2-c2ccccc2)cc1` (centres undefined), the EC50 was > 200 µM and the IC50 was 28.2 µM. Regarding `O=C1C=C(C23CC4CC(CC(C4)C2)C3)N2CCCc3cccc(c32)N1`, the EC50 is > 100 µM and the IC50 was > 100 µM.

Take `C[n+]1c2ccccc2cc2c(CNC(CCCN=C(N)N)C(=O)O)cccc21` (centres undefined): the result was inactive.

For the compound `OC(C1=C/C(=C\c2ccncc2)c2ccccc21)c1ccncc1` (centres undefined), the EC50 is > 83.2 µM and the 50% inhibitory concentration (IC50) worked out at 5.25 µM.

`Cn1cc(S(=O)(=O)NC(=O)Nc2ccc(Cl)cc2)c(=O)c2ccc(F)cc21`: the result was inactive.

For the compound `O=C(Nc1nc(=S)[nH][nH]1)C(=O)C(C(=O)c1ccc2ccccc2c1)C1OC(=O)c2ccccc21` (centres undefined), the EC50 is > 55 µM and the 50% inhibitory concentration (IC50) came to 25.7 µM. For the compound `OC[C@H]1CCCC1O` (some centres undefined), the result was inactive. For `COc1ccc(CCCN2c3ccccc3Sc3ccccc32)cc1`, the EC50 is > 10.7 µM and the IC50 was > 10.7 µM.

For the compound `C[N+]12CCC(c3ccccc3)(CC1)C(O)C2` (centres undefined), the EC50 was > 832 µM and the IC50 was 741 µM. On to `Cc1ccc(O)c(Cc2cc(C)cc(Cc3cc(C)ccc3O)c2O)c1`, for which the EC50 was > 102 µM and the IC50 came to 20 µM. In the case of `CC(=O)O[C@H]1CCC2[C@@H]3CCC4=C(O)C(=O)C(C#N)C[C@]4(C)C3CC[C@@]21C` (some centres undefined), the outcome was inactive. On to `CCCCCCCCCCCCCCCCP(=O)([O-])OCC[N+](C)(C)C`, for which the EC50 is > 200 µM and the IC50 came to 12 µM. `Cc1cccc(N2C(=O)C(Cl)=C(Cl)C2=O)c1`: the outcome was inactive. As for `COc1cccc(C(CC(=O)O)=NCCc2c[nH]c3ccccc23)c1C(=O)O`, the EC50 was > 603 µM and the IC50 came to 316 µM. For `O=C1Nc2cccc3c2N(CCC3)C2=C1CCC2` the same measures were > 200 µM and > 200 µM. `N/N=C(/c1ccccc1)c1cccc([N+](=O)[O-])c1`: the EC50 is > 200 µM and the IC50 was found to be 166 µM.

In the case of `COC(=O)C1=CCC[C@H]2C1(C)CCC(C)C21CC(c2ccoc2)OC1=O` (some centres undefined), the EC50 was > 100 µM and the IC50 was found to be 51.3 µM. On to `C=C1OC(OC)CC(N)C1O` (centres undefined), for which the outcome was inactive. In the case of `COC1/C=C/OC2(C)Oc3c(C)c(O)c4c(O)c(cc(OCC(=O)N5C(C)CCC5C)c4c3C2=O)NC(=O)/C(C)=C/C=C/C(C)C(O)C(C)C(O)C(C)C(OC(C)=O)C1C` (centres undefined), the EC50 is > 200 µM and the IC50 is 43.7 µM. With `NC1=NCCS1`, the EC50 is > 70.8 µM; the IC50 is > 70.8 µM and 32.4 µM. Regarding `COc1ccc(CC(=O)NC(C)Cc2ccc(OC)c(OC)c2)cc1OC` (centres undefined), the outcome was inactive. As to `O=c1[nH]c(=O)n(C2CC(O)C(CO)O2)cc1C(OCC(F)(F)F)OCC(F)(F)F` (centres undefined), the EC50 was > 251 µM and the IC50 was 12 µM. In the same order, the values of `CC(C)(C)OC(=O)c1ccc(NCC2=CC(=O)C=CC2=O)cc1` are > 200 µM and 10.2 µM. Turning to `Cc1cn(C2CC(CO)N(CCO)O2)c(=O)[nH]c1=O` (centres undefined), the EC50 was > 200 µM and the IC50 was > 200 µM. For `Cc1cc(NC(=O)C(=O)Cc2cnc3ccccc3n2)c(S(=O)(=O)O)cc1Cl`, the EC50 was > 589 µM and the IC50 was > 589 µM. Regarding `CC(C)CC(N)C(=O)NC(CC(=O)O)C(=O)NC(CCCCN)C(=O)NC(C)C(=O)NC(CO)C(=O)NC(Cc1ccc(O)cc1)C(=O)NC(CO)C(=O)NC(C(=O)O)C(C)O` (centres undefined) (H-LDKASYST-OH; configuration not given here), the EC50 is > 56.2 µM and the IC50 was > 56.2 µM.
